The target in assay [1] is T1, human B1R receptor (hB1R) (Homo sapiens, UniProt P46663).
T1 construct: host or cells: CHO K1 cells
T1 sequence (P46663 1-353): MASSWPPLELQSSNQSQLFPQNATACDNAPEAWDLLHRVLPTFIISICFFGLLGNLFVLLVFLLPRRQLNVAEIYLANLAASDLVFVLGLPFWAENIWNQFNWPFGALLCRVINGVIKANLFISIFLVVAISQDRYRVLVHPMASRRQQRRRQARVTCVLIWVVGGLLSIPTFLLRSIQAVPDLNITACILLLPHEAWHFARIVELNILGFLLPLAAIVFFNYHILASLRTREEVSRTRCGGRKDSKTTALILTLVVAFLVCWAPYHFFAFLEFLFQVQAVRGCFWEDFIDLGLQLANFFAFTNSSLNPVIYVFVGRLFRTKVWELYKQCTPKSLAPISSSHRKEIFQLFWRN
Nature of the assay: FLIPR Ca2+ assay on hB1R-transfected CHO K1 cells, antagonistic action. Format: cell-based. The settings on record: CHO-K1, 10 μM test substance; agonist Lys-Des-Arg9-bradykinin 0.5 nM; % of maximum achievable inhibition; read-out: hB1R [10 μM] % inhibition.

The target of assay [2] is T2, B1R receptor of the rat (rB1R) (Rattus norvegicus, UniProt P97583).
T2 construct: host or cells: CHO K1 cells
T2 sequence (P97583 1-337): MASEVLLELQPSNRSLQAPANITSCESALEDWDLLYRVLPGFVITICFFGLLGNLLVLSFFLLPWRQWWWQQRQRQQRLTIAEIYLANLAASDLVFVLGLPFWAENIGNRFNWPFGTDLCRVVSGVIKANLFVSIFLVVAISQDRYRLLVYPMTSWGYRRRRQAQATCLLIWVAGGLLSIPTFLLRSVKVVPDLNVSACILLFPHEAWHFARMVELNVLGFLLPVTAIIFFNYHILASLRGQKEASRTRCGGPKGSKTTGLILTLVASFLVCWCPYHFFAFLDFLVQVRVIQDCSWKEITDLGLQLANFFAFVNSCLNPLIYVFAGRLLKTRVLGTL
In words: FLIPR Ca2+ assay on rB1R-transfected CHO K1 cells, antagonistic action. Format: cell-based. The settings on record: CHO-K1, 10 μM test substance; agonist Des-Arg9-bradykinin 100 nM; % of maximum achievable inhibition; read-out: rB1R [10 μM] % inhibition.

By inhibition is commonly meant the relative decrease from the control value, in per cent. For `O=C(COCC1CCCN(S(=O)(=O)c2c(Cl)cc(Cl)cc2Cl)C1)NC1CCC(c2ccccc2)(N2CCCC2)CC1` (stereo not drawn) [Compound 192, N-(4-phenyl-4-(pyrrolidin-1-yl)cyclohexyl)-2-((1-(2,4,6-trichlorophenylsulfonyl)piperidin-3-yl)methoxy)acetamide], the inhibition at 10 µM in assay [1] turned out to be 99%; in assay [2], 50%.

As for `COc1cc(C)c(S(=O)(=O)N2CCCC[C@H]2COCC(=O)N(C)CCC2CCC(c3ccccc3)(N3CCC3)CC2)c(C)c1` (stereo partly drawn) [Compound 201, (S)-N-(2-(4-(azetidin-1-yl)-4-phenylcyclohexyl)ethyl)-2-((1-(4-methoxy-2,6-dimethylphenylsulfonyl)piperidin-2-yl)methoxy)-N-methylacetamide], the figures for the inhibition at 10 µM in assay [1] and in assay [2] were 100% and 97%, respectively.

On to `O=C(CC1CCCCN1S(=O)(=O)c1cccc(C(F)(F)F)c1)N1CCC(c2ccccc2)(N2CCN(c3ccncc3)CC2)CC1` (stereo not drawn) [Compound 113, 1-(4-phenyl-4-(4-(pyridin-4-yl)piperazin-1-yl)piperidin-1-yl)-2-(1-(3-(trifluoromethyl)phenylsulfonyl)piperidin-2-yl)ethanone], for which the inhibition at 10 µM in assay [1] is 79%; in assay [2], 74%.

As for `CN(CC1CCC(CCc2ccccc2)(N2CCCC2)CC1)C(=O)CC(NS(=O)(=O)c1ccc2ccccc2c1)c1ccccc1` (stereo not drawn) [Compound 89, N-methyl-3-(naphthalene-2-sulfonamido)-N-((4-phenethyl-4-(pyrrolidin-1-yl)cyclohexyl)methyl)-3-phenylpropanamide], the inhibition at 10 µM in assay [1] was determined as 92%; in assay [2], 98%.

For `Cc1cc(S(=O)(=O)N2CCCCC2CCC(=O)N(C)CC2CCC(c3ccccc3)(N3CCCC3)CC2)c(C)cc1Cl` (stereo not drawn) [Compound 140, 3-(1-(4-chloro-2,5-dimethylphenylsulfonyl)piperidin-2-yl)-N-methyl-N-((4-phenyl-4-(pyrrolidin-1-yl)cyclohexyl)methyl)propanamide], the results for the inhibition at 10 µM in assay [1] and in assay [2] were 103% and 21%, respectively.

In the case of `CN1CCN(C2(Cc3ccccc3)CCC(CN(C)C(=O)COCC3CCCN3S(=O)(=O)c3c(Cl)cc(Cl)cc3Cl)CC2)CC1` (stereo not drawn) [Compound 168, N-((4-benzyl-4-(4-methylpiperazin-1-yl)cyclohexyl)methyl)-N-methyl-2-((1-(2,4,6-trichlorophenylsulfonyl)pyrrolidin-2-yl)methoxy)acetamide], the inhibition at 10 µM in assay [1] and in assay [2] was 88% in each case.

Take `COc1cc(C)c(S(=O)(=O)N(C)CCOCC(=O)NC2CCC(c3ccccc3)(N3CCOCC3)CC2)c(C)c1` (stereo not drawn) [Compound 167, 2-(2-(4-methoxy-N,2,6-trimethylphenylsulfonamido)ethoxy)-N-(4-morpholino-4-phenylcyclohexyl)acetamide]: the results for the inhibition at 10 µM in assay [1] and in assay [2] were 100% and 88%, respectively.

Consider `COc1cc(C)c(S(=O)(=O)N2CCCCC2COCCC(=O)N2CCC(c3cccc(F)c3)(N3CCN(C)CC3)CC2)c(C)c1` (stereo not drawn) [Compound 226, 1-(4-(3-Fluorophenyl)-4-(4-methylpiperazin-1-yl)piperidin-1-yl)-3-((1-(4-methoxy-2,6-dimethylphenylsulfonyl)piperidin-2-yl)methoxy)propan-1-one], for which the inhibition at 10 µM in assay [1] and in assay [2] was 100% throughout.

For the compound `COc1cc(C)c(S(=O)(=O)N2CCCC2COCC(=O)NCC2CCC(c3ccccc3)(N3CCOCC3)CC2)c(C)c1` (stereo not drawn) [Compound 152, 2-((1-(4-methoxy-2,6-dimethylphenylsulfonyl)pyrrolidin-2-yl)methoxy)-N-((4-morpholino-4-phenylcyclohexyl)methyl)acetamide], the inhibition at 10 µM amounted to 84% in assay [1] and 102% in assay [2].

As to `COc1cc(C)c(S(=O)(=O)N2CCCCC2COCC(=O)N(C)CC2CCC(Cc3ccccc3)(N3CCCC3)CC2)c(C)c1` (stereo not drawn) [Compound 78, N-((4-benzyl-4-(pyrrolidin-1-yl)cyclohexyl)methyl)-2-((1-(4-methoxy-2,6-dimethylphenylsulfonyl)piperidin-2-yl)methoxy)-N-methylacetamide], the inhibition at 10 µM in assay [1] came out at 101%; in assay [2], 99%.

On to `COc1cc(C)c(S(=O)(=O)N(C)CCOCC(=O)N(C)CC2CCC(Cc3ccccc3)(N3CCN(C)CC3)CC2)c(C)c1` (stereo not drawn) [Compound 183, N-((4-benzyl-4-(4-methylpiperazin-1-yl)cyclohexyl)methyl)-2-(2-(4-methoxy-N,2,6-trimethylphenylsulfonamido)ethoxy)-N-methylacetamide], for which the figures for the inhibition at 10 µM in assay [1] and in assay [2] were 102% and 66%, respectively.

Consider `COc1cc(C)c(S(=O)(=O)N2CCCCC2COCC(=O)N(C)CCCC2CCC(c3ccccc3)(N3CCC3)CC2)c(C)c1` (stereo not drawn) [Compound 205, N-(3-(4-(azetidin-1-yl)-4-phenylcyclohexyl)propyl)-2-((1-(4-methoxy-2,6-dimethylphenylsulfonyl)piperidin-2-yl)methoxy)-N-methylacetamide], for which the inhibition at 10 µM in assay [1] and in assay [2] was 100% throughout.

Take `Cc1ccccc1CC1(N(C)C)CCC(NC(=O)COCCN(C)S(=O)(=O)c2ccc(Cl)cc2Cl)CC1` (stereo not drawn) [Compound 30, 2-(2-(2,4-dichloro-N-methylphenylsulfonamido)ethoxy)-N-(4-(dimethylamino)-4-(2-methylbenzyl)cyclohexyl)acetamide]: the values for the inhibition at 10 µM in assay [1] and in assay [2] were 63% and 39%, respectively.

As to `CN(CCCC1CCC(CCc2ccccc2)(N2CCCC2)CC1)C(=O)CC(NS(=O)(=O)c1ccc2ccccc2c1)c1ccccc1` (stereo not drawn) [Compound 79, N-methyl-3-(naphthalene-2-sulfonamido)-N-(3-(4-phenethyl-4-(pyrrolidin-1-yl)cyclohexyl)propyl)-3-phenylpropanamide], the inhibition at 10 µM in assay [1] came to 102%; in assay [2], 99%.

As to `COc1cc(C)c(S(=O)(=O)N2CCCCC2COCC(=O)NC2CCC(c3ccccc3)(N3CCCC3)CC2)c(C)c1` (stereo not drawn) [Compound 147, 2-((1-(4-methoxy-2,6-dimethylphenylsulfonyl)piperidin-2-yl)methoxy)-N-(4-phenyl-4-(pyrrolidin-1-yl)cyclohexyl)acetamide], the inhibition at 10 µM in assay [1] worked out at 94%; in assay [2], 108%.

In the case of `CN(CCC1CCC(c2ccccc2)(N2CCCC2)CC1)C(=O)CC(NS(=O)(=O)c1ccc2ccccc2c1)c1ccccc1` (stereo not drawn) [Compound 40, N-methyl-3-(naphthalene-2-sulfonamido)-3-phenyl-N-(2-(4-phenyl-4-(pyrrolidin-1-yl)cyclohexyl)ethyl)propanamide], the inhibition at 10 µM in assay [1] was found to be 103%; in assay [2], 101%.

On to `COc1cc(C)c(S(=O)(=O)N(C)CCOCC(=O)NCC2CCC(c3ccccc3)(N3CCOCC3)CC2)c(C)c1` (stereo not drawn) [Compound 185, 2-(2-(4-methoxy-N,2,6-trimethylphenylsulfonamido)ethoxy)-N-((4-morpholino-4-phenylcyclohexyl)methyl)acetamide], for which the values for the inhibition at 10 µM in assay [1] and in assay [2] were 93% and 65%, respectively.

As for `COc1cc(C)c(S(=O)(=O)N(C)CCOCC(=O)N2CCC(c3cccc(F)c3)(N3CCN(C)CC3)CC2)c(C)c1` [Compound 210, N-(2-(2-(4-(3-Fluorophenyl)-4-(4-methylpiperazin-1-yl)piperidin-1-yl)-2-oxoethoxy)ethyl)-4-methoxy-N,2,6-trimethylbenzenesulfonamide], the inhibition at 10 µM in assay [1] came out at 100%; in assay [2] it was 101%.

Values taken from patent US20090253669A1, “Substituted Sulfonamide Compounds” (GRUENENTHAL GmbH, priority 2008, published 2009).
